Laboratory results from ChEMBL document CHEMBL1145163, “Structure-based design, synthesis, and memapsin 2 (BACE) inhibitory activity of carbocyclic and heterocyclic peptidomimetics” (J Med Chem, 2005).
Starred links: 1 amine or outer side, 2 acyl side, 3 side chain; linkers in the order of their positions; H or OH if unused. Non-standard residues stand in square brackets, D forms with d. Residues, ends and D or L forms follow the SMILES beside them. LeuΨ(S-CHOHCH2)Ala = CC(C)C[C@H](N[*:1])[C@@H](O)C[C@@H](C)C(=O)[*:2]; X1 = CC(C)C[C@H](N[*:1])[C@@H](O)[C@@H]1CCC[C@H]1C(=O)[*:2]

Key:
[1] = molecular target: T1, Cathepsin D (Homo sapiens, UniProt P07339); assay: Inhibitory concentration against human Cathepsin D
[2] = molecular target: T2, Beta-secretase 1 (Homo sapiens, UniProt P56817); assay: Inhibitory concentration against human Membrane-associated aspartic protease 2
[3] = molecular target: T1, Cathepsin D; assay: Inhibitory activity against human Cathepsin D at 0.01 uM
[4] = molecular target: T2, Beta-secretase 1; assay: Inhibitory activity against human beta-site APP-cleaving enzyme 1 at 0.01 uM

T1 sequence (P07339 65-162 limits assumed): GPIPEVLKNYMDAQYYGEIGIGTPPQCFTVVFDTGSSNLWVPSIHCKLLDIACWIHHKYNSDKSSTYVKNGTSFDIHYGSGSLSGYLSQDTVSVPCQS
T1 sequence (P07339 169-412 limits assumed): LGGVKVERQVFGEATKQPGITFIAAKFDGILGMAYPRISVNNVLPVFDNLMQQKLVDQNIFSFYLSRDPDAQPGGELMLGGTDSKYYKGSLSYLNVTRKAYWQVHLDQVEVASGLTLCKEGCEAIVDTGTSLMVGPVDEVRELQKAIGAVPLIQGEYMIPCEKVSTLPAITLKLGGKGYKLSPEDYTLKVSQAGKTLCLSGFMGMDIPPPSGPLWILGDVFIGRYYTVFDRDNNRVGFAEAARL
T2 sequence (P56817 whole entry): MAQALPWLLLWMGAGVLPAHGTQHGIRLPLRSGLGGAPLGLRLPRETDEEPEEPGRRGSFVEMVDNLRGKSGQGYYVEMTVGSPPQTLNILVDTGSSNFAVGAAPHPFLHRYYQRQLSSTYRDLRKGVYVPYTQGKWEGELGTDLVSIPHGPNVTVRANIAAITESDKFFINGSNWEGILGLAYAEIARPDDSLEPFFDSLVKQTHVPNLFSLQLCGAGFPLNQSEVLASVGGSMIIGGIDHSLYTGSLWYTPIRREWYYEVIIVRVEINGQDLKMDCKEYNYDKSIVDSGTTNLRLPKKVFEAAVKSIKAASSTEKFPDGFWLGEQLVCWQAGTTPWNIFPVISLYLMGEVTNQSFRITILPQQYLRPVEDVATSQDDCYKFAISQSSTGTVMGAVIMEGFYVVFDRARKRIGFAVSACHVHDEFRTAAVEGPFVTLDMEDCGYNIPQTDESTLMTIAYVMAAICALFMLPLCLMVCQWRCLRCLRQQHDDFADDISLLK

IC50 [1] | IC50 [2] | inhibition [3] | inhibition [4] | Structure (SMILES)
0.06 µM | 0.04 µM | – | – | CC(C)C[C@H](NC(=O)[C@H](CC(N)=O)NC(=O)[C@@H](NC(=O)[C@@H](N)CCC(=O)O)C(C)C)[C@@H](O)[C@@H]1CCC[C@H]1C(=O)N[C@@H](C)C(=O)N[C@@H](CCC(=O)O)C(=O)O (H-EVN[X1]AE-OH)
0.006 µM | – | – | – | CC(C)C[C@H](NC(=O)[C@H](CC(N)=O)NC(=O)[C@@H](NC(=O)[C@@H](N)CCC(=O)O)C(C)C)[C@@H](O)C[C@@H](C)C(=O)N[C@@H](C)C(=O)N[C@@H](CCC(=O)O)C(=O)N[C@@H](Cc1ccccc1)C(=O)O (H-EVN[LeuΨ(S-CHOHCH2)Ala]AEF-OH)
0.025 µM | 0.19 µM | – | – | CSCC[C@H](NC(=O)[C@H](CC(C)C)NC(C)=O)C(=O)N[C@@H](CC(C)C)[C@@H](O)[C@@H]1CCC[C@H]1C(=O)N[C@H](C(=O)O)C(C)C
< 0.01 µM | 0.185 µM | 95% | – | CCCCNC(=O)[C@H](C)NC(=O)[C@@H]1CCC[C@H]1[C@H](O)[C@H](CC(C)C)NC(=O)[C@H](CCSC)NC(=O)[C@H](CC(C)C)NC(C)=O
0.098 µM | 0.012 µM | – | – | CC(C)C[C@H](NC(=O)[C@H](CC(N)=O)NC(=O)[C@@H](NC(=O)[C@@H](N)CCC(=O)O)C(C)C)[C@@H](O)C[C@@H](C)C(=O)N[C@@H](C)C(=O)O (H-EVN[LeuΨ(S-CHOHCH2)Ala]A-OH)
0.28 µM | 9.56 µM | – | – | CCCCNC(=O)[C@@H](NC(=O)[C@@H]1OCC[C@H]1[C@H](O)[C@H](CC(C)C)NC(=O)[C@H](CCSC)NC(=O)[C@H](CC(C)C)NC(C)=O)C(C)C
1.5 µM | 0.72 µM | – | – | CSCC[C@H](NC(=O)[C@H](CC(C)C)NC(C)=O)C(=O)N[C@@H](CC(C)C)[C@@H](O)[C@@H]1CC(=O)C[C@H]1C(=O)N[C@@H](C)C(=O)O
< 0.01 µM | 0.016 µM | 90% | – | CC(C)C[C@H](NC(=O)[C@H](CC(N)=O)NC(=O)[C@@H](NC(=O)[C@@H](N)CCC(=O)O)C(C)C)[C@@H](O)[C@@H]1CCC[C@H]1C(=O)N[C@@H](C)C(=O)N[C@@H](CCC(=O)O)C(=O)N[C@@H](Cc1ccccc1)C(=O)O [CARBOCYCLIC PEPTIDOMIMETIC] (H-EVN[X1]AEF-OH)
0.06 µM | 1.82 µM | – | – | CCCCNC(=O)[C@@H]1CCC[C@H]1[C@H](O)[C@H](CC(C)C)NC(=O)[C@H](CCSC)NC(=O)[C@H](CC(C)C)NC(C)=O
6 µM | – | – | – | CC(C)C[C@H](NC(=O)[C@H](CC(N)=O)NC(=O)[C@@H](NC(=O)[C@@H](N)CCC(=O)O)C(C)C)[C@@H](O)[C@@H]1CCC[C@H]1C(=O)N[C@@H](C)C(=O)O (H-EVN[X1]A-OH)
0.07 µM | < 0.01 µM | – | 79% | CCCCNC(=O)[C@@H](NC(=O)[C@H]1[C@H]([C@H](O)[C@H](CC(C)C)NC(=O)[C@H](CCSC)NC(=O)[C@H](CC(C)C)NC(C)=O)CC(=O)N1C)C(C)C
0.13 µM | 3.35 µM | – | – | CCCCNC(=O)[C@@H](NC(=O)[C@@H]1C(=O)N(CC)C[C@H]1[C@H](O)[C@H](CC(C)C)NC(=O)[C@H](CCSC)NC(=O)[C@H](CC(C)C)NC(C)=O)C(C)C
1.23 µM | 3.44 µM | – | – | CCCCNC(=O)[C@@H](NC(=O)[C@@H]1CN(C)C[C@H]1[C@H](O)[C@H](CC(C)C)NC(=O)[C@H](CCSC)NC(=O)[C@H](CC(C)C)NC(C)=O)C(C)C
0.056 µM | – | – | – | CCCCNC(=O)[C@@H](NC(=O)[C@@H]1CC(=O)C[C@H]1[C@H](O)[C@H](CC(C)C)NC(=O)[C@H](CCSC)NC(=O)[C@H](CC(C)C)NC(C)=O)C(C)C
0.43 µM | > 10 µM | – | – | C=C1C[C@@H]([C@H](O)[C@H](CC(C)C)NC(=O)[C@H](CCSC)NC(=O)[C@H](CC(C)C)NC(C)=O)[C@H](C(=O)N[C@@H](C)C(=O)O)C1
< 0.01 µM | 0.025 µM | 100% | – | CCCCNC(=O)[C@@H](NC(=O)[C@@H]1CCC[C@H]1[C@H](O)[C@H](CC(C)C)NC(=O)[C@H](CCSC)NC(=O)[C@H](CC(C)C)NC(C)=O)C(C)C

Structure (SMILES) | IC50 [1] | IC50 [2] | inhibition [3] | inhibition [4]
CSCC[C@H](NC(=O)[C@H](CC(C)C)NC(C)=O)C(=O)N[C@@H](CC(C)C)[C@@H](O)[C@@H]1CCC[C@H]1C(=O)N[C@@H](C)C(=O)O | 0.09 µM | 0.06 µM | – | –
